Reference: publication PMC5537074 (Journal of medicinal chemistry, 2017)
Blank lines part the entries; values can stand above or below the compound they belong to.

Tests used:
[1] = tested on: cultured cells (adipocyte differentiation); settings: cultured cells treated with compound; cited from earlier work
rodents = settings: cited from earlier work
T2DM patients = settings: cited from earlier work
PPARγ = settings: as compared to rosiglitazone; cited from earlier work
[2] = biological target: T1, human GAL4-PPARγ-Hinge-LBD (Homo sapiens, UniProt P37231); assay: Transactivation assay; type: cell-based; settings: HEK293T cells, GAL4-PPARγ-Hinge-LBD / UAS-luciferase, 18 h incubation, doses 169 pM to 10 μM
T1 sequence (P37231 238-503 limits assumed): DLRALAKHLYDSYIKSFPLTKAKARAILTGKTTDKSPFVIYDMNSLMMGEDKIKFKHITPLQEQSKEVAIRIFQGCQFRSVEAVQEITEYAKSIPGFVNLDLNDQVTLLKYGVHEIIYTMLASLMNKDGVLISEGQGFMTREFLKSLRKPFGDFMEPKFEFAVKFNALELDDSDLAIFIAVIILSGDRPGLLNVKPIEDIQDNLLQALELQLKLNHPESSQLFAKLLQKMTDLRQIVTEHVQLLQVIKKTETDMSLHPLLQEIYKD

Compound: O=S(=O)(Nc1cc(Cl)c(Oc2cnc3ccccc3c2)c(Cl)c1)c1ccc(Cl)cc1Cl [Compound 1, 2,4-dichloro-N-(3,5-dichloro-4-(quinolin-3-yloxy)phenyl)benzenesulfonamide]
Adipocyte differentiation [1]: not enhanced | lowers blood glucose levels (rodents; 0.3 mg/kg dose): over 30% | total weight gain, heart weight gain, lung weight gain (rodents; compared with rosiglitazone administration): less total weight gain, heart weight gain, and lung weight gain | pharmacokinetic and pharmacodynamic properties (T2DM patients; Phase 1 studies (4 studies)): favorable pharmacokinetic and pharmacodynamic properties | tolerability (T2DM patients; Phase 2a, multicenter, double blind, placebo controlled, T2DM patients): generally well tolerated | maximal transcriptional activation of reporter genes (PPARγ): approximately 30%

EC50 (nM) n=3 [2]: no activity
Compound: O=S(=O)(Nc1cc(Cl)c(Oc2cnc3ccccc3c2)c(Cl)c1)c1cccs1 [Compound 15, N-(3,5-dichloro-4-(quinolin-3-yloxy)phenyl)thiophene-2-sulfonamide]

Compound: CN(CCOc1ccc(CC2SC(=O)NC2=O)cc1)c1ccccn1 (stereo not drawn) [rosiglitazone]
Adipocyte differentiation [1]: significant induction

EC50 (nM) n=3 [2]: no activity
Compound: N-(3,5-dichloro-4-(quinolin-3-yloxy)phenyl)-thiophene-2-carboxamide [Compound 7]
